# Experimental data reported in patent US20130302305A1, “Methods for Treating Gout in Patients Subpopulations” (Metabolex, Inc., priority 2011, published 2013).
# “And” between values parts separate entries of the source, which are not always exact repeats. Equal entries are not always repeated.
# Assays:
# [1] = test system: type 2 diabetes patients inadequately controlled on existing insulin therapy; assay: Phase 2 study M102-20303: fasting plasma glucose (FPG); format: in vivo, human; conditions: for mean observed change in FPG from baseline at Week 12: all patients
# Experimental: (§1) FIGS. 5-7 were generated based on a randomized, double-blind, placebo-controlled phase 2 study, M102-20303. In this study, two dose levels of (−)-halofenate (200 mg and 400 mg) or placebo were given orally daily for 12 weeks to a total of 217 type 2 diabetes patients who were inadequately controlled on existing insulin therapy. In addition to their stable dose of insulin, these patients received the study drug for 12 weeks, and followed up for an additional four weeks. In this study, change in HbA1c from baseline at week 16 was the primary endpoint and changes in fasting plasma glucose and triglyceride from baseline at Week 12 were secondary endpoints. In order to maintain the blinded status, the HbA1c results following administration of double-blind study medication were not available to any parties until the studies were unblinded. In this study, patients were not allowed to add any other glucose lowering agent(s) or to change their existing doses of insulin. Patients who added lipid lowering agent(s) or changed their existing doses of lipid lowering agent(s) were excluded from the triglyceride analysis. Patients who received (−)-halofenate during the study but had no measurable (−)-halofenate in the blood were defined as non-compliant and were excluded from the analysis.
# type 2 diabetic patients [2] = assay: Pooled analysis of four phase 2 studies: estimated creatinine clearance (Cockcroft-Gault), kidney function status; format: in vivo, human; conditions: for Mean Baseline estimated Cr Cl (mL/min) (second column of that head, c3): all analysed patients
# Experimental: (§2) FIGS. 1-4 were generated based on the pooled analysis of four phase 2 studies conducted with (−)-halofenate in type 2 diabetic patients. In these studies a total of 955 patients were enrolled. In the M102-20303 study, two dose levels of (−)-halofenate (200 mg and 400 mg) or placebo were given orally daily to a total of 217 patients for 12 weeks. In the M102-20405 study, (−)-halofenate at a dose of 600 mg or placebo was given daily to a total of 100 patients for 12 weeks. In the M102-20509 study, three dose levels of (−)-halofenate (200 mg, 400 mg and 600 mg), Actos® 30 mg or placebo were given orally daily to a total of 396 patients for 16 weeks. In M102-20814 study, two dose levels of (−)-halofenate (400 mg and 600 mg), Actos® 30-45 mg or placebo were given orally daily to a total of 242 patients for 24 weeks. In these studies, change in serum uric acid (sUA) from baseline was one of the important endpoints. In order to maintain the blinded status, the sUA results following administration of double-blind study medication were not available to any parties until the studies were unblinded. Patients who added or changed the existing doses of medications that are known to influence serum uric acid levels were excluded from the serum uric acid analysis. Patients received either (−)-halofenate or matching placebo during the study were included in this exploratory analysis. Patients who received (−)-halofenate during the study but had no measurable (−)-halofenate in the blood were defined as non-compliant and were excluded from the analysis. This analysis indicated statistically significant dose dependent reduction in serum uric acid from baseline: 2% in the placebo group (n=252), −11% in the 200 mg group (n=125), −20% in the 400 mg group (n=174), and −27% in the 600 mg group (n=159); p<0.0001 for all dose groups. In order to evaluate the sUA response in CKD patients, in addition to the analysis described above, the patients were subdivided based on their baseline kidney function status. The kidney function status of each patient was evaluated by estimating the creatinine clearance (glomerular filtration rate) using the Cockcroft-Gault equation [Cockcroft-Gault GFR=(140−age)×(Body weight in kg)×(0.85 if female)/(72×serum creatinine)]. For estimating the baseline creatinine clearance, baseline body weight (kg) and baseline serum creatinine values were used and similarly, for estimating the end-of-the study creatinine clearance, end-of-study body weight and end-of-study serum creatinine values were used. […] In this analysis there were no patients with CKD4 (severe CKD) or CKD5 (kidney failure).
# The changes in estimated creatinine clearance values in the 200 mg, 400 mg, and 600 mg groups compared to placebo group were not statistically significant.
# [3] = test system: type 2 diabetes patients inadequately controlled on existing insulin therapy; assay: Phase 2 study M102-20303: triglycerides; format: in vivo, human; conditions: CKD2 and CKD3 (mild to moderate CKD) patients, 400 mg daily for 12 weeks
# Experimental: as §1
# type 2 diabetic patients [4] = assay: Pooled analysis of four phase 2 studies: change in serum uric acid (sUA) from baseline; format: in vivo, human; conditions: for reduction in serum uric acid from baseline: all analysed patients, 12-24 weeks (pooled)
# Experimental: as §2
# [5] = test system: type 2 diabetes patients inadequately controlled on existing insulin therapy; assay: Phase 2 study M102-20303: HbA1c; format: in vivo, human; conditions: for reduction from baseline in HbA1c: all patients, endpoint at week 16
# Experimental: as §1
# gout patients = conditions: monotherapy at 40, 80, 120, 160 and 240 mg/day; cited from earlier work
# [6] = CKD2 and CKD3 (mild to moderate CKD) patients, 400 mg daily for 12 weeks
structure (smiles),measurement,setting,value
"CC(=O)NCCOC(=O)[C@H](Oc1cccc(C(F)(F)F)c1)c1ccc(Cl)cc1 [(−)-halofenate, (−)-(R)-(4-chloro-phenyl)-(3-trifluoromethyl-phenoxy)-acetic acid 2-acetylamino-ethyl ester]",Change in FPG (%),[1]; [6],−18.0% and −17.6%
same,End-of-study FPG,[1]; [6],136.5 mg/dL
same,mean observed change in FPG from baseline at Week 12,[1]; 200 mg daily,-10.9 mg/dL
same,mean observed change in FPG from baseline at Week 12,[1]; 400 mg daily,-29.2 mg/dL
same,"Mean Baseline estimated Cr Cl (mL/min) (second column of that head, c3)",type 2 diabetic patients [2]; 200 mg daily,102.4 mL/min
same,change in CrCL as compared to placebo,"type 2 diabetic patients [2]; 200 mg, 400 mg and 600 mg per day (FIG. 4)",no clinically significant change in CrCL
same,"Mean Baseline estimated Cr Cl (mL/min) (second column of that head, c3)",type 2 diabetic patients [2]; 400 mg daily,103.5 mL/min
same,"Mean Baseline estimated Cr Cl (mL/min) (second column of that head, c3)",type 2 diabetic patients [2]; 600 mg daily,100.6 mL/min
same,Change in triglyceride,[3],-33.6 mg/dL
same,End-of-study triglyceride,[3],168.6 mg/dL
same,Mean Change in sUA (%),"type 2 diabetic patients [4]; 200 mg daily, CKD2 and CKD3 patients",−14% and −14.30%
same,Mean Change in sUA (%),"type 2 diabetic patients [4]; 400 mg daily, CKD2 and CKD3 patients",−21% and −21.30%
same,Mean Change in sUA (%),"type 2 diabetic patients [4]; 600 mg daily, CKD2 (mild CKD) patients",−28% and −28.2%
same,Mean Change in sUA (%),"type 2 diabetic patients [4]; 600 mg daily, CKD2 and CKD3 patients",−29%
same,Mean Change in sUA (%),"type 2 diabetic patients [4]; 600 mg daily, CKD3 (moderate CKD) patients",−36% and −35.6%
same,Mean Change in sUA (%),"type 2 diabetic patients [4]; 600 mg daily, Normal and CKD1 patients",−25% and −25.3%
same,urate-lowering effect when co-administered with aspirin,"type 2 diabetic patients [4]; 200, 400 and 600 mg daily with low to medium doses of aspirin (<= about 325 mg/day) vs no aspirin",does not result in clinically significant loss of the urate-lowering effect
same,urate-lowering effect when co-administered with diuretics,"type 2 diabetic patients [4]; 200, 400 and 600 mg daily with thiazide or other diuretics vs no diuretics",does not result in clinically significant loss of the urate-lowering effect
same,reduction in serum uric acid from baseline,type 2 diabetic patients [4]; 200 mg orally daily,−11%
same,reduction in serum uric acid from baseline,type 2 diabetic patients [4]; 400 mg orally daily,−20%
same,reduction in serum uric acid from baseline,type 2 diabetic patients [4]; 600 mg orally daily,−27%
same,change in serum uric acid (sUA) from baseline,"type 2 diabetic patients [4]; aspirin treated patients (<= about 325 mg/day), 200 mg daily",−13%
same,change in serum uric acid (sUA) from baseline,"type 2 diabetic patients [4]; aspirin treated patients (<= about 325 mg/day), 400 mg daily",−20%
same,change in serum uric acid (sUA) from baseline,"type 2 diabetic patients [4]; aspirin treated patients (<= about 325 mg/day), 600 mg daily",−27%
same,change in serum uric acid (sUA) from baseline,"type 2 diabetic patients [4]; patients not taking any diuretics, 200 mg daily",−11%
same,change in serum uric acid (sUA) from baseline,"type 2 diabetic patients [4]; patients not taking any diuretics, 400 mg daily",−21%
same,change in serum uric acid (sUA) from baseline,"type 2 diabetic patients [4]; patients not taking any diuretics, 600 mg daily",−27%
same,change in serum uric acid (sUA) from baseline,"type 2 diabetic patients [4]; patients not taking aspirin, 200 mg daily",−10%
same,change in serum uric acid (sUA) from baseline,"type 2 diabetic patients [4]; patients not taking aspirin, 400 mg daily",−20%
same,change in serum uric acid (sUA) from baseline,"type 2 diabetic patients [4]; patients not taking aspirin, 600 mg daily",−26%
same,change in serum uric acid (sUA) from baseline,"type 2 diabetic patients [4]; patients taking any diuretics, 200 mg daily",−12%
same,change in serum uric acid (sUA) from baseline,"type 2 diabetic patients [4]; patients taking any diuretics, 400 mg daily",−15%
same,change in serum uric acid (sUA) from baseline,"type 2 diabetic patients [4]; patients taking any diuretics, 600 mg daily",−24%
same,change in serum uric acid (sUA) from baseline,"type 2 diabetic patients [4]; thiazide diuretic treated patients, 200 mg daily",−16%
same,change in serum uric acid (sUA) from baseline,"type 2 diabetic patients [4]; thiazide diuretic treated patients, 400 mg daily",−17%
same,change in serum uric acid (sUA) from baseline,"type 2 diabetic patients [4]; thiazide diuretic treated patients, 600 mg daily",−24%
same,Change in HbA1c (%),[5]; [6],−1.1%
same,End-of-study HbA1c (%),[5]; [6],8.1%
same,reduction from baseline in HbA1c,[5]; 200 mg daily for 12 weeks on stable insulin,−0.9%
same,reduction from baseline in HbA1c,[5]; 400 mg daily for 12 weeks on stable insulin,−1.0%
"O=c1[nH]cnc2c(CN3C[C@H](CO)[C@@H](O)C3)c[nH]c12 [Ulodesine, 7-(((3R,4R)-3-hydroxy-4-(hydroxymethyl)pyrrolidin-1-yl)methyl)-3H-pyrrolo[3,2-d]pyrimidin-4(5H)-one]",effect on serum uric acid,gout patients,rapidly and significantly reduced serum uric acid
